Reference: publication PMC5218480 (PLoS ONE, 2017)

System: MV-4-11 cells
Assay: Gene expression microarray analysis (Affymetrix PrimeView) and GSEA
Format: cell-based, human
Set-up: RFU PODN (11730768_x_at) / Fold change /veh PODN (11730768_x_at) / RFU LINC00158 (11744669_a_at) / Fold change /veh LINC00158 (11744669_a_at) / RFU DUSP10 (11751237_a_at) / Fold change /veh DUSP10 (11751237_a_at) / RFU ID3 (11757404_x_at) / Fold change /veh ID3 (11757404_x_at) / RFU PLEKHG5 (11737974_s_at) / Fold change /veh PLEKHG5 (11737974_s_at) / RFU LRRC4B (11730491_at) / Fold change /veh LRRC4B (11730491_at) / RFU GIMAP4 (11747438_a_at) / Fold change /veh GIMAP4 (11747438_a_at) / RFU KRT8 (11758183_x_at) / Fold change /veh KRT8 (11758183_x_at) / RFU CNN1 (11734310_a_at) / Fold change /veh CNN1 (11734310_a_at) / RFU VPS37D (11726825_at) / Fold change /veh VPS37D (11726825_at) / RFU C10orf10 (11716522_x_at) / Fold change /veh C10orf10 (11716522_x_at) / RFU KIR2DL2 /// KIR2DL4 /// KIR2DL5A /// KIR2DL5B /// KIR2DS1 /// KIR2DS2 /// KIR2DS3 /// KIR2DS4 /// KIR3DL3 /// KIR3DL3 /// KIR3DS1 (11738374_at) / Fold change /veh KIR2DL2 /// KIR2DL4 /// KIR2DL5A /// KIR2DL5B /// KIR2DS1 /// KIR2DS2 /// KIR2DS3 /// KIR2DS4 /// KIR3DL3 /// KIR3DL3 /// KIR3DS1 (11738374_at) / RFU C1QL1 (11718748_at) / Fold change /veh C1QL1 (11718748_at) / RFU TMPRSS4 (11747572_a_at) / Fold change /veh TMPRSS4 (11747572_a_at) / RFU HAMP (11756126_x_at) / Fold change /veh HAMP (11756126_x_at) / RFU RNFT2 (11725882_a_at) / Fold change /veh RNFT2 (11725882_a_at) / RFU NR4A2 (11747474_a_at) / Fold change /veh NR4A2 (11747474_a_at) / RFU ABCC12 (11746883_a_at) / Fold change /veh ABCC12 (11746883_a_at) / RFU TMEM136 (11760407_x_at) / Fold change /veh TMEM136 (11760407_x_at) / RFU CLDN22 /// WWC2 (11732394_at) / Fold change /veh CLDN22 /// WWC2 (11732394_at) / RFU HLA-DPB1 (11760878_x_at) / Fold change /veh HLA-DPB1 (11760878_x_at) / RFU SPINT1 (11716480_a_at) / Fold change /veh SPINT1 (11716480_a_at) / RFU GAP43 (11754022_s_at) / Fold change /veh GAP43 (11754022_s_at) / RFU A4GNT (11735810_at) / Fold change /veh A4GNT (11735810_at) / RFU PRB3 (11715151_x_at) / Fold change /veh PRB3 (11715151_x_at) / RFU TUBB4B (11761932_at) / Fold change /veh TUBB4B (11761932_at) / RFU CAPN14 (11732068_a_at) / Fold change /veh CAPN14 (11732068_a_at) / RFU TMCC2 (11721928_a_at) / Fold change /veh TMCC2 (11721928_a_at) / RFU IRGQ (11745062_a_at) / Fold change /veh IRGQ (11745062_a_at) / RFU FAM174B (11720279_a_at) / Fold change /veh FAM174B (11720279_a_at) / RFU TMPRSS4 (11748680_a_at) / Fold change /veh TMPRSS4 (11748680_a_at) / RFU FAM212B (11763350_a_at) / Fold change /veh FAM212B (11763350_a_at) / RFU PLEKHG5 (11743358_a_at) / Fold change /veh PLEKHG5 (11743358_a_at) / RFU ZSCAN30 (11745921_a_at) / Fold change /veh ZSCAN30 (11745921_a_at) / RFU CMKLR1 (11741424_a_at) / Fold change /veh CMKLR1 (11741424_a_at) / RFU LOC101060620 /// MAPK8IP1 (11723275_at) / Fold change /veh LOC101060620 /// MAPK8IP1 (11723275_at) / RFU SPTSSB (11747773_x_at) / Fold change /veh SPTSSB (11747773_x_at) / RFU PRSS12 (11739890_at) / Fold change /veh PRSS12 (11739890_at) / RFU BIN1 (11741810_x_at) / Fold change /veh BIN1 (11741810_x_at) / RFU WNT11 (11732464_a_at) / Fold change /veh WNT11 (11732464_a_at) / RFU C10orf10 (11716521_a_at) / Fold change /veh C10orf10 (11716521_a_at) / RFU C5orf56 (11738089_at) / Fold change /veh C5orf56 (11738089_at) / RFU CYB561 (11721691_x_at) / Fold change /veh CYB561 (11721691_x_at) / RFU ANKRD19P (11752326_a_at) / Fold change /veh ANKRD19P (11752326_a_at) / RFU OR2T12 /// OR2T33 /// OR2T8 (11738714_s_at) / Fold change /veh OR2T12 /// OR2T33 /// OR2T8 (11738714_s_at) / RFU VCAN (11748164_a_at) / Fold change /veh VCAN (11748164_a_at) / RFU JSRP1 (11732532_at) / Fold change /veh JSRP1 (11732532_at) / RFU KRTAP10-11 (11738290_x_at) / Fold change /veh KRTAP10-11 (11738290_x_at) / RFU MYO3A (11730013_a_at) / Fold change /veh MYO3A (11730013_a_at) / RFU EBF3 (11725865_a_at) / Fold change /veh EBF3 (11725865_a_at) / RFU CAMK2N1 (11719241_x_at) / Fold change /veh CAMK2N1 (11719241_x_at) / RFU C5orf56 (11738088_a_at) / Fold change /veh C5orf56 (11738088_a_at) / RFU OLFML3 (11715873_a_at) / Fold change /veh OLFML3 (11715873_a_at) / RFU LOC100653217 /// NTM (11731650_a_at) / Fold change /veh LOC100653217 /// NTM (11731650_a_at) / RFU MAPK11 (11762145_a_at) / Fold change /veh MAPK11 (11762145_a_at) / RFU FIZ1 (11724087_x_at) / Fold change /veh FIZ1 (11724087_x_at) / RFU OASL (11726364_x_at) / Fold change /veh OASL (11726364_x_at) / RFU SOX15 (11748057_x_at) / Fold change /veh SOX15 (11748057_x_at) / RFU CD79A (11719716_a_at) / Fold change /veh CD79A (11719716_a_at) / RFU HIST1H1D (11736915_at) / Fold change /veh HIST1H1D (11736915_at) / RFU CASKIN2 (11723855_a_at) / Fold change /veh CASKIN2 (11723855_a_at) / RFU LOC730098 (11760151_x_at) / Fold change /veh LOC730098 (11760151_x_at) / RFU OR4N2 (11742367_at) / Fold change /veh OR4N2 (11742367_at) / RFU PRRT2 (11749266_a_at) / Fold change /veh PRRT2 (11749266_a_at) / RFU SNX32 (11753110_a_at) / Fold change /veh SNX32 (11753110_a_at) / RFU CDHR5 (11726645_a_at) / Fold change /veh CDHR5 (11726645_a_at) / RFU RCAN1 (11760418_a_at) / Fold change /veh RCAN1 (11760418_a_at) / RFU FAM167A (11723789_a_at) / Fold change /veh FAM167A (11723789_a_at) / RFU FAM26E (11764081_at) / Fold change /veh FAM26E (11764081_at) / RFU ISYNA1 (11749810_s_at) / Fold change /veh ISYNA1 (11749810_s_at) / RFU ACY1 (11761880_at) / Fold change /veh ACY1 (11761880_at) / RFU 11764098_at / Fold change /veh 11764098_at / RFU SAMD14 (11745864_x_at) / Fold change /veh SAMD14 (11745864_x_at) / RFU NPB (11741838_a_at) / Fold change /veh NPB (11741838_a_at) / RFU TMPRSS6 (11731388_a_at) / Fold change /veh TMPRSS6 (11731388_a_at) / RFU KRTAP10-2 (11738614_at) / Fold change /veh KRTAP10-2 (11738614_at) / RFU ARHGAP8 /// PRR5-ARHGAP8 (11727945_x_at) / Fold change /veh ARHGAP8 /// PRR5-ARHGAP8 (11727945_x_at) / RFU KRTAP5-7 /// NADSYN1 (11734609_at) / Fold change /veh KRTAP5-7 /// NADSYN1 (11734609_at) / RFU RASL12 (11751679_a_at) / Fold change /veh RASL12 (11751679_a_at) / RFU CDKN2B (11736163_a_at) / Fold change /veh CDKN2B (11736163_a_at) / RFU PRF1 (11729649_at) / Fold change /veh PRF1 (11729649_at) / RFU, ZNF638 /// ZNF638-IT1 / Fold change vs veh, ZNF638 /// ZNF638-IT1 / RFU, PANK3 / Fold change vs veh, PANK3 / RFU, SH3YL1 / Fold change vs veh, SH3YL1 / RFU, ZEB2 / Fold change vs veh, ZEB2 / RFU, NRIP1 / Fold change vs veh, NRIP1 / RFU, PTTG1IP / Fold change vs veh, PTTG1IP / RFU, CAPN2 / Fold change vs veh, CAPN2 / RFU, MED14 / Fold change vs veh, MED14 / RFU, SNORA58 / Fold change vs veh, SNORA58 / RFU, C1orf63 / Fold change vs veh, C1orf63 / RFU, LRRFIP1 / Fold change vs veh, LRRFIP1 / RFU, NDUFAF7 / Fold change vs veh, NDUFAF7 / RFU, SLC12A2 / Fold change vs veh, SLC12A2 / RFU, IBTK / Fold change vs veh, IBTK / RFU, ESF1 / Fold change vs veh, ESF1 / Fold change vs veh, TMEM50B / RFU, TAOK1 / Fold change vs veh, TAOK1 / RFU, ACBD3 / Fold change vs veh, ACBD3 / RFU, TMA16 / Fold change vs veh, TMA16 / RFU, RWDD3 / Fold change vs veh, RWDD3 / RFU, BCAT1 / Fold change vs veh, BCAT1 / RFU, EDEM3 / Fold change vs veh, EDEM3 / RFU, TMEM33 / Fold change vs veh, TMEM33 / RFU, WDR75 / Fold change vs veh, WDR75 / RFU, AHCTF1 / Fold change vs veh, AHCTF1 / RFU, TFRC / Fold change vs veh, TFRC / RFU, ZDHHC17 / Fold change vs veh, ZDHHC17 / RFU, NOM1 / Fold change vs veh, NOM1 / RFU, ARL8B / Fold change vs veh, ARL8B / RFU, ZBTB11 / Fold change vs veh, ZBTB11 / RFU, TAMM41 / Fold change vs veh, TAMM41 / RFU, KIAA1704 /// LOC100996395 / Fold change vs veh, KIAA1704 /// LOC100996395 / RFU, ING1 / Fold change vs veh, ING1 / RFU, TRMT61B / Fold change vs veh, TRMT61B / RFU, FUBP3 / Fold change vs veh, FUBP3 / RFU, TP53 / Fold change vs veh, TP53 / RFU, TNKS2 / Fold change vs veh, TNKS2 / RFU, ZFP14 / Fold change vs veh, ZFP14 / RFU, ACTR2 / Fold change vs veh, ACTR2 / RFU, PPP3R1 / Fold change vs veh, PPP3R1 / RFU, PIK3R1 / Fold change vs veh, PIK3R1 / RFU, HNRNPA1 / Fold change vs veh, HNRNPA1 / RFU, RNF170 / Fold change vs veh, RNF170 / RFU, ZNF28 / Fold change vs veh, ZNF28 / RFU, RNGTT / Fold change vs veh, RNGTT / RFU, OGT / Fold change vs veh, OGT / RFU, BRD1 / Fold change vs veh, BRD1 / RFU, MARS / Fold change vs veh, MARS / RFU, ZNF655 / Fold change vs veh, ZNF655 / RFU, FAHD1 / Fold change vs veh, FAHD1 / RFU, BDP1 / Fold change vs veh, BDP1 / RFU, LRRCC1 / Fold change vs veh, LRRCC1 / RFU, ARID1A / Fold change vs veh, ARID1A / RFU, ZNF146 / Fold change vs veh, ZNF146 / RFU, ZNF330 / Fold change vs veh, ZNF330 / RFU, GPN3 / Fold change vs veh, GPN3 / RFU, C9orf123 / Fold change vs veh, C9orf123 / RFU, N4BP2L2 / Fold change vs veh, N4BP2L2 / RFU, ARFIP1 / Fold change vs veh, ARFIP1 / RFU, FAM179B / Fold change vs veh, FAM179B / RFU, BCL10 / Fold change vs veh, BCL10 / RFU, UHRF1BP1L / Fold change vs veh, UHRF1BP1L / RFU, BET1 / Fold change vs veh, BET1 / RFU, CNOT2 / Fold change vs veh, CNOT2 / RFU, ZNF268 / Fold change vs veh, ZNF268 / Fold change vs veh, ZNF507 / RFU, DGCR2 / Fold change vs veh, DGCR2 / RFU, WDSUB1 / Fold change vs veh, WDSUB1 / Fold change vs veh, HSP90B1 /// MIR3652 / RFU, ADSS / Fold change vs veh, ADSS / RFU, GK / Fold change vs veh, GK / RFU, ZNF148 / Fold change vs veh, ZNF148 / RFU, TAF9 / Fold change vs veh, TAF9 / RFU, SLC1A5 / Fold change vs veh, SLC1A5 / RFU, SLMO2 / Fold change vs veh, SLMO2 / RFU, ABCC4 / Fold change vs veh, ABCC4 / RFU, LOC101060439 /// RAP1B / Fold change vs veh, LOC101060439 /// RAP1B / RFU, RFX7 / Fold change vs veh, RFX7 / RFU, GTPBP10 / Fold change vs veh, GTPBP10 / RFU, CNEP1R1 / Fold change vs veh, CNEP1R1 / RFU, BIVM-ERCC5 /// ERCC5 / Fold change vs veh, BIVM-ERCC5 /// ERCC5 / RFU, ILF3 / Fold change vs veh, ILF3 / RFU 11762660_at / Fold change /veh 11762660_at / RFU VCAN (11757783_s_at) / Fold change /veh VCAN (11757783_s_at) / RFU DDX43 (11728927_at) / Fold change /veh DDX43 (11728927_at) / RFU KRT8 (11758188_x_at) / Fold change /veh KRT8 (11758188_x_at) / RFU NKD1 (11759106_at) / Fold change /veh NKD1 (11759106_at) / RFU SRD5A1 (11742802_a_at) / Fold change /veh SRD5A1 (11742802_a_at) / RFU TPSAB1 /// TPSB2 (11721975_s_at) / Fold change /veh TPSAB1 /// TPSB2 (11721975_s_at) / RFU GSTM3 (11746129_a_at) / Fold change /veh GSTM3 (11746129_a_at) / RFU IL23R (11737362_x_at) / Fold change /veh IL23R (11737362_x_at) / RFU TMEM51 (11727254_a_at) / Fold change /veh TMEM51 (11727254_a_at) / RFU PIWIL2 (11732686_x_at) / Fold change /veh PIWIL2 (11732686_x_at) / RFU ORM1 (11744905_x_at) / Fold change /veh ORM1 (11744905_x_at) / RFU CCDC152 (11743942_at) / Fold change /veh CCDC152 (11743942_at) / RFU ECM1 (11717891_a_at) / Fold change /veh ECM1 (11717891_a_at) / RFU IL23R (11748794_a_at) / Fold change /veh IL23R (11748794_a_at) / RFU TNFAIP8L3 (11732012_x_at) / Fold change /veh TNFAIP8L3 (11732012_x_at) / RFU MBOAT4 (11741988_at) / Fold change /veh MBOAT4 (11741988_at) / RFU 11764193_at / Fold change /veh 11764193_at / RFU TMEM53 (11763286_at) / Fold change /veh TMEM53 (11763286_at) / RFU MAGEB2 (11727129_at) / Fold change /veh MAGEB2 (11727129_at) / RFU TMEM200A (11744735_a_at) / Fold change /veh TMEM200A (11744735_a_at) / RFU CCDC152 (11751479_a_at) / Fold change /veh CCDC152 (11751479_a_at) / RFU FAM211A (11726209_a_at) / Fold change /veh FAM211A (11726209_a_at) / RFU RGS16 (11746705_a_at) / Fold change /veh RGS16 (11746705_a_at) / RFU VCAN (11755009_s_at) / Fold change /veh VCAN (11755009_s_at) / RFU RHOB (11743442_s_at) / Fold change /veh RHOB (11743442_s_at) / RFU RGS16 (11720943_a_at) / Fold change /veh RGS16 (11720943_a_at) / RFU RGS16 (11720944_at) / Fold change /veh RGS16 (11720944_at) / RFU, VPS4B / Fold change vs veh, VPS4B / RFU, CREB1 / Fold change vs veh, CREB1 / RFU, DNAJC13 / Fold change vs veh, DNAJC13 / RFU, GNAQ / Fold change vs veh, GNAQ / RFU, CDK5R1 / Fold change vs veh, CDK5R1 / RFU, ZRANB3 / Fold change vs veh, ZRANB3 / RFU, CUL4A / Fold change vs veh, CUL4A / RFU, CCNY / Fold change vs veh, CCNY / RFU, UFL1 / Fold change vs veh, UFL1 / RFU, COG3 / Fold change vs veh, COG3 / RFU, DIAPH2 / Fold change vs veh, DIAPH2 / RFU, SKA2 / Fold change vs veh, SKA2 / RFU, AFF3 / Fold change vs veh, AFF3 / RFU, LMF1 / Fold change vs veh, LMF1 / RFU, IPO11 / Fold change vs veh, IPO11 / RFU, DFFB / Fold change vs veh, DFFB / RFU, FOXP1 / Fold change vs veh, FOXP1 / RFU, CARD8 / Fold change vs veh, CARD8 / RFU, STRN3 / Fold change vs veh, STRN3 / RFU, ADK / Fold change vs veh, ADK / RFU, RASSF2 / Fold change vs veh, RASSF2 / RFU, WIPF1 / Fold change vs veh, WIPF1 / RFU, LARP1B / Fold change vs veh, LARP1B / RFU, RASA1 / Fold change vs veh, RASA1 / RFU, RB1 / Fold change vs veh, RB1 / RFU, PPFIA1 / Fold change vs veh, PPFIA1 / RFU, MAT2A / Fold change vs veh, MAT2A / RFU, CCT5 / Fold change vs veh, CCT5 / RFU, WDR92 / Fold change vs veh, WDR92 / RFU, CUX1 / Fold change vs veh, CUX1 / RFU, TTC7A / Fold change vs veh, TTC7A / RFU, TMEM135 / Fold change vs veh, TMEM135 / RFU, DEPTOR / Fold change vs veh, DEPTOR / RFU, CPM / Fold change vs veh, CPM / RFU, DNAJB6 / Fold change vs veh, DNAJB6 / RFU, CACNA2D3 / Fold change vs veh, CACNA2D3 / RFU, DTX4 / Fold change vs veh, DTX4 / RFU, TFCP2 / Fold change vs veh, TFCP2 / RFU, GMCL1 /// GMCL1P1 / Fold change vs veh, GMCL1 /// GMCL1P1 / RFU, AEBP2 / Fold change vs veh, AEBP2 / RFU, SNHG1 /// SNORD22 /// SNORD25 /// SNORD26 /// SNORD27 /// SNORD28 /// SNORD29 /// SNORD31 / Fold change vs veh, SNHG1 /// SNORD22 /// SNORD25 /// SNORD26 /// SNORD27 /// SNORD28 /// SNORD29 /// SNORD31 / Fold change (Aza/veh), C12orf56 (ProbeSet 11735607_a_at) / Fold change (ACY-1035/veh), C12orf56 (ProbeSet 11735607_a_at) / Fold change (Aza/veh), FGFR1OP (ProbeSet 11751329_s_at) / Fold change (ACY-1035/veh), FGFR1OP (ProbeSet 11751329_s_at) / Fold change (Aza/veh), VPS36 (ProbeSet 11739960_a_at) / Fold change (ACY-1035/veh), VPS36 (ProbeSet 11739960_a_at) / RFU SYPL1 (11715823_x_at) / Fold change /veh SYPL1 (11715823_x_at) / RFU IGFBP7 (11715501_s_at) / Fold change /veh IGFBP7 (11715501_s_at) / RFU REEP3 (11722064_at) / Fold change /veh REEP3 (11722064_at) / RFU IGLL1 (11728026_x_at) / Fold change /veh IGLL1 (11728026_x_at): dose or concentration left out as unconfirmed
Conditions: ProbeSet 11744854_x_at; LIST B

Nc1ncn([C@@H]2O[C@H](CO)[C@@H](O)[C@H]2O)c(=O)n1 [azacitidine]
Fold change vs veh, ZNF28: 0.91
